Measurements reported in US20230103791A1 (GLAXOSMITHKLINE INTELLECTUAL PROPERTY DEVELOPMENT LIMITED, priority 2019, published 2023).

What follows are compounds tested against T1, human Nav1.8 (Homo sapiens, UniProt Q9Y5Y9) (assay: Nav1.8 sodium channels assay, QPatch 48 HTX electrophysiology in HEK293-Nav1.8 cells). Conditions: Table 1; HEK293-Nav1.8, QPatch 48 HTX, half inactivation state voltage protocol (V1/2); single run or average of two or more runs; read-out: Nav1.8 pIC50 (converted).
T1 construct: expressed in transfected cells; host or cells: HEK293 (HEK293-Nav1.8)
T1 sequence (Q9Y5Y9 whole entry): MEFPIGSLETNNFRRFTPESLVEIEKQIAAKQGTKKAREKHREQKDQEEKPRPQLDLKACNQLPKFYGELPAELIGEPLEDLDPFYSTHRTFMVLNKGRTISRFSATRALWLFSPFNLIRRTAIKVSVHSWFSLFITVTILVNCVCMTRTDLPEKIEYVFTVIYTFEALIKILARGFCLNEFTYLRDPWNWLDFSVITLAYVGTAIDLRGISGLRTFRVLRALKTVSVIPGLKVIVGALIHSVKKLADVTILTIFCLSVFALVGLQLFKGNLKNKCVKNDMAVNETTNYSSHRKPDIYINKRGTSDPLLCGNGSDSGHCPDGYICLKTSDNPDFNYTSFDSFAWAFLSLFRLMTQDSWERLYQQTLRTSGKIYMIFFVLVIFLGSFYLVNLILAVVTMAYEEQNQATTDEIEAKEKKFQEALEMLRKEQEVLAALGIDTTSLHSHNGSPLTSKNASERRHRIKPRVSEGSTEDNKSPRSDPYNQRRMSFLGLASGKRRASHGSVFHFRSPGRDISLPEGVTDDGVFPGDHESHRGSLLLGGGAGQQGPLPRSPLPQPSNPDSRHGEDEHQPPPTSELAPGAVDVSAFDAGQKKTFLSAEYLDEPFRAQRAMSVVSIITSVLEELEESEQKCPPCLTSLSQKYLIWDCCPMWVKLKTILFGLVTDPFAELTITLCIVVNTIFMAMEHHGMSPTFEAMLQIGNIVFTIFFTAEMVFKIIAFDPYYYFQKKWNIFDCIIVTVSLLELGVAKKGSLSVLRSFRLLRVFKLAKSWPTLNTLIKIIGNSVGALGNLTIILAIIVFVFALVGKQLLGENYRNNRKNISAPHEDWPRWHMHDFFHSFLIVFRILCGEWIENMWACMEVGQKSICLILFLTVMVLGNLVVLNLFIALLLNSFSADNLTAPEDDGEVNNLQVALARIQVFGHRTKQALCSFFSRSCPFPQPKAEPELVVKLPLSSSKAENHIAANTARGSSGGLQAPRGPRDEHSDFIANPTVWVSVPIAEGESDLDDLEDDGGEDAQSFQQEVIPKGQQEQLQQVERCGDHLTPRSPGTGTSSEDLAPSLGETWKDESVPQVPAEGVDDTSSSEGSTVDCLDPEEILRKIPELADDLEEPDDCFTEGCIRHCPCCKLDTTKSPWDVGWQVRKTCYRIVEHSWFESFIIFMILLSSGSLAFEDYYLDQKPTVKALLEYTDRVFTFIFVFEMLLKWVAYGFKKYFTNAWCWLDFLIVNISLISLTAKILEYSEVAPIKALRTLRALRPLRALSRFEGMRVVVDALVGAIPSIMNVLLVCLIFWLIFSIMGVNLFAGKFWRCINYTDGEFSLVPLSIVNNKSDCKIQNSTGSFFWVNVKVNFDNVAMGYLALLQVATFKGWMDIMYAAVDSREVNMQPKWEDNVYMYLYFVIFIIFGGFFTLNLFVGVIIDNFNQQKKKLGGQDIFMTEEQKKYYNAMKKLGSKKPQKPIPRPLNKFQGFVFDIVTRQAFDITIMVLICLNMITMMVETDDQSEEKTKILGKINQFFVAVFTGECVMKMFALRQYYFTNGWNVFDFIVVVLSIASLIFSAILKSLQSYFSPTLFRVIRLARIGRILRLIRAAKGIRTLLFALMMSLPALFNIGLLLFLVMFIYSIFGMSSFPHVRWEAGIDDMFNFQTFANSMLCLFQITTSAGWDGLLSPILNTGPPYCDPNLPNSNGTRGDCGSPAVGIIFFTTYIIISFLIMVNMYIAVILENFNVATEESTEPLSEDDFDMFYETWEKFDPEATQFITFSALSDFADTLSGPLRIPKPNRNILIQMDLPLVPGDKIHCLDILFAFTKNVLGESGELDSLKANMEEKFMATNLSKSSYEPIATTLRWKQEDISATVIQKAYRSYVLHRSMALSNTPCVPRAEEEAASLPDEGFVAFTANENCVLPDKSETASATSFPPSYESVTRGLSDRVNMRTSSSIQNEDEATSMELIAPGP
T1 sequence (Q07699 19-218 partner): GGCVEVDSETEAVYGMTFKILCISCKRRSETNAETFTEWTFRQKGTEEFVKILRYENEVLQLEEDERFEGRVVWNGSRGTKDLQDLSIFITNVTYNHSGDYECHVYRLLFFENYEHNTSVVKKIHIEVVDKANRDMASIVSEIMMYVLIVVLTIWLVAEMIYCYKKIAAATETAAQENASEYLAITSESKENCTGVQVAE
Type: cell-based
How it was run: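 IC50 came from 6-8 point curves of P2 current amplitude, normalized to baseline and a positive reference, and corrected for run-down using vehicle-only wells. Automated patch clamp used HEK293-Nav1.8 (with Navβ1 and TREK1) at pH 7.4 outside and CsF-based solution inside. An 8 s inactivating step at −46 mV preceded the 0 mV test pulse, repeated at 0.07 Hz.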
In the case of Cc1cc(F)ccc1N1CN(c2ccc(=O)[nH]c2)C(=O)c2ccc(C(F)(F)F)cc21 [drawing 261, 1-(4-fluoro-2-methylphenyl)-3-(6-oxo-1,6-dihydropyridin-3-yl)-7-(trifluoromethyl)-2,3-dihydroquinazolin-4(1H)-one], the IC50 is reported as 126 nM.
In the case of O=C1c2ccc(C(F)(F)F)cc2N(c2ccc(F)cc2)CN1c1ccc(=O)[nH]c1 [drawing 262, 1-(4-fluorophenyl)-3-(6-oxo-1,6-dihydropyridin-3-yl)-7-(trifluoromethyl)-2,3-dihydroquinazolin-4(1H)-one], the IC50 is reported as 398 nM.
Work on O=C1c2ccc(C(F)(F)F)cc2N(C2CCCCC2)CN1c1ccc(=O)[nH]c1 [drawing 263, 1-cyclohexyl-3-(6-oxo-1,6-dihydropyridin-3-yl)-7-(trifluoromethyl)-2,3-dihydroquinazolin-4(1H)-one] yielded an IC50 of 6310 nM.
COc1cc(F)ccc1N1CN(c2ccc(=O)[nH]c2)C(=O)c2ccc(C(F)(F)F)cc21 [drawing 264, 1-(4-fluoro-2-methoxyphenyl)-3-(6-oxo-1,6-dihydropyridin-3-yl)-7-(trifluoromethyl)-2,3-dihydroquinazolin-4(1H)-one] gave an IC50 of 316 nM.
Cc1cc(F)ccc1N1CN(c2ccc(=O)n(C)c2)C(=O)c2ccc(C(F)(F)F)cc21 [drawing 265] showed an IC50 of 2000 nM.
Cc1cc(F)ccc1N1CN(c2ccc(=O)[nH]c2C)C(=O)c2cc(C(F)(F)F)cnc21 [drawing 266, 1-(4-fluoro-2-methylphenyl)-3-(2-methyl-6-oxo-1,6-dihydropyridin-3-yl)-6-(trifluoromethyl)-2,3-dihydropyrido[2,3-d]pyrimidin-4(1H)-one] was tested, and the IC50 was 158 nM.
With Cc1cc(F)ccc1N1CN(c2ccc(=O)[nH]c2)C(=O)c2c1cccc2C(F)(F)F [drawing 267, 1-(4-fluoro-2-methylphenyl)-3-(6-oxo-1,6-dihydropyridin-3-yl)-5-(trifluoromethyl)-2,3-dihydroquinazolin-4(1H)-one] the IC50 was 2510 nM.
Work on Cc1cc(F)ccc1N1CN(c2ccc(=O)[nH]c2C)C(=O)c2ccc(C(F)(F)F)cc21 [drawing 268, 1-(4-fluoro-2-methylphenyl)-3-(2-methyl-6-oxo-1,6-dihydropyridin-3-yl)-7-(trifluoromethyl)-2,3-dihydroquinazolin-4(1H)-one] yielded an IC50 of 20 nM.

Same assay, conditions: at least one set of experimental runs; read-out: average pIC50 value against Nav1.8 (converted)
Cc1c[n+]([O-])ccc1N1CN(c2ccc(F)cc2C)c2ccc(C(F)(F)F)cc2C1=O [Example 254, 4-(1-(4-fluoro-2-methylphenyl)-4-oxo-6-(trifluoromethyl)-1,4-dihydroquinazolin-3(2H)-yl)-3-methylpyridine 1-oxide] showed an IC50 of 126 to 631 nM.
For Cc1cc(N2CN(c3ccc(F)cc3C)c3ccc(C(F)(F)F)cc3C2=O)c[n+]([O-])c1 [Example 255, 3-(1-(4-fluoro-2-methylphenyl)-4-oxo-6-(trifluoromethyl)-1,4-dihydroquinazolin-3(2H)-yl)-5-methylpyridine 1-oxide], the IC50 was 794 to 7940 nM.
For Cc1c[n+]([O-])ccc1N1CN(c2ccc(OC(F)(F)F)cc2C)c2ccc(C(F)(F)F)cc2C1=O [Example 256, 3-methyl-4-(1-(2-methyl-4-(trifluoromethoxy)phenyl)-4-oxo-6-(trifluoromethyl)-1,4-dihydroquinazolin-3(2H)-yl)pyridine 1-oxide], the IC50 was no more than 100 nM.
For Cc1cc(F)ccc1N1CN(c2ccc(=O)[nH]c2N)C(=O)c2cc(C(F)(F)F)ccc21 [Example 257, 3-(2-Amino-6-oxo-1,6-dihydropyridin-3-yl)-1-(4-fluoro-2-methylphenyl)-6-(trifluoromethyl)-2,3-dihydroquinazolin-4(1H)-one], the IC50 was no more than 100 nM.
Work on Cc1cc(F)ccc1N1CN(c2ccc(=O)[nH]c2C)C(=O)c2ccc(C3COC3)cc21 [Example 265, 1-(4-Fluoro-2-methylphenyl)-3-(2-methyl-6-oxo-1,6-dihydropyridin-3-yl)-7-(oxetan-3-yl)-2,3-dihydroquinazolin-4(1H)-one] yielded an IC50 of 126 to 631 nM.
In the case of Cc1cc(O)ccc1N1CN(c2ccc(F)cc2C)c2ccc(C(F)(F)F)cc2C1=O [Example 266, 1-(4-Fluoro-2-methylphenyl)-3-(4-hydroxy-2-methylphenyl)-6-(trifluoromethyl)-2,3-dihydroquinazolin-4(1H)-one], the IC50 is reported as 794 to 7940 nM.
With Cc1cc(O)ccc1N1CN(c2ccc(F)cc2C)c2cc(C(F)(F)F)ccc2C1=O [Example 267, 1-(4-Fluoro-2-methylphenyl)-3-(4-hydroxy-2-methylphenyl)-7-(trifluoromethyl)-2,3-dihydroquinazolin-4(1H)-one] the IC50 was 794 to 7940 nM.
Cc1cc(F)ccc1N1CN(C2CCC(=O)NC2)C(=O)c2ccc(C(F)(F)F)cc21 (stereo not shown) [Example 268] was tested, and the IC50 was 126 to 631 nM.
CC1=C(N2CN(c3ccc(F)cc3C)c3cc(C(F)(F)F)ccc3C2=O)CCC(=O)N1 [Example 269, 1-(4-fluoro-2-methylphenyl)-3-(2-methyl-6-oxo-1,4,5,6-tetrahydropyridin-3-yl)-7-(trifluoromethyl)-2,3-dihydroquinazolin-4(1H)-one] gave an IC50 of no more than 100 nM.
Cc1cc(F)ccc1N1CN(C2CNC(=O)NC2)C(=O)c2ccc(C(F)(F)F)cc21 [Example 270, 1-(4-fluoro-2-methylphenyl)-3-(2-oxohexahydro-pyrimidin-5-yl)-7-(trifluoromethyl)-2,3-dihydroquinazolin-4(1H)-one] showed an IC50 of 126 to 631 nM.
CC1=C(N2CN(c3ccc(F)cc3C)c3cc(C(F)(F)F)ccc3C2=O)CNC(=O)N1 [Example 271, 1-(4-fluoro-2-methylphenyl)-3-(6-methyl-2-oxo-1,2,3,4-tetrahydro-pyrimidin-5-yl)-7-(trifluoromethyl)-2,3-dihydroquinazolin-4(1H)-one] gave an IC50 of no more than 100 nM.
Cc1cc(N)ncc1N1CN(c2ccc(F)cc2C)c2ccc(C(F)(F)F)cc2C1=O [Example 277, 3-(6-Amino-4-methylpyridin-3-yl)-1-(4-fluoro-2-methylphenyl)-6-(trifluoromethyl)-2,3-dihydroquinazolin-4(1H)-one] was tested, and the IC50 was 126 to 631 nM.
In the case of Cc1[nH]c(=O)ccc1N1CN([C@H]2CCCC[C@@H]2C)c2cc(C(F)(F)F)ccc2C1=O [Example 279, 3-(2-Methyl-6-oxo-1,6-dihydropyridin-3-yl)-1-((1S,2S)-2-methylcyclohexyl)-7-(trifluoromethyl)-2,3-dihydroquinazolin-4(1H)-one], the IC50 is reported as no more than 100 nM.
With Cc1[nH]c(=O)ccc1N1CN([C@@H]2CCCC[C@H]2C)c2cc(C(F)(F)F)ccc2C1=O [Example 280, 3-(2-Methyl-6-oxo-1,6-dihydropyridin-3-yl)-1-((1R,2R)-2-methylcyclohexyl)-7-(trifluoromethyl)-2,3-dihydroquinazolin-4(1H)-one] the IC50 was 126 to 631 nM.
Cc1[nH]c(=O)ccc1N1CN([C@H]2CCOC[C@H]2C)c2cc(C(F)(F)F)ccc2C1=O [Example 281, 3-(2-Methyl-6-oxo-1,6-dihydropyridin-3-yl)-1-((3S,4S)-3-methyltetrahydro-2H-pyran-4-yl)-7-(trifluoromethyl)-2,3-dihydroquinazolin-4(1H)-one] gave an IC50 of 126 to 631 nM.
In the case of Cc1[nH]c(=O)ccc1N1CN([C@@H]2CCOC[C@@H]2C)c2cc(C(F)(F)F)ccc2C1=O [Example 282, 3-(2-Methyl-6-oxo-1,6-dihydropyridin-3-yl)-1-((3R,4R)-3-methyltetrahydro-2H-pyran-4-yl)-7-(trifluoromethyl)-2,3-dihydroquinazolin-4(1H)-one], the IC50 is reported as 794 to 7940 nM.
In the case of Cc1[nH]c(=O)ccc1N1CN([C@H]2CCOC[C@@H]2C)c2cc(C(F)(F)F)ccc2C1=O [Example 283, 3-(2-Methyl-6-oxo-1,6-dihydropyridin-3-yl)-1-((3R,4S)-3-methyltetrahydro-2H-pyran-4-yl)-7-(trifluoromethyl)-2,3-dihydroquinazolin-4(1H)-one], the IC50 is reported as 126 to 631 nM.
Cc1[nH]c(=O)ccc1N1CN([C@@H]2CCOC[C@H]2C)c2cc(C(F)(F)F)ccc2C1=O [Example 284, 3-(2-Methyl-6-oxo-1,6-dihydropyridin-3-yl)-1-((3S,4R)-3-methyltetrahydro-2H-pyran-4-yl)-7-(trifluoromethyl)-2,3-dihydroquinazolin-4(1H)-one] gave an IC50 of 794 to 7940 nM.
Compound Cc1cc(F)ccc1N1CN([C@H]2CCC(=O)N[C@H]2C)C(=O)c2ccc(C(F)(F)F)cc21 [Example 287, 1-(4-Fluoro-2-methylphenyl)-3-((2S,3S)-2-methyl-6-oxopiperidin-3-yl)-7-(trifluoromethyl)-2,3-dihydroquinazolin-4(1H)-one] has an IC50 of 794 to 7940 nM.
Work on Cc1cc(F)ccc1N1CN([C@@H]2CCC(=O)N[C@@H]2C)C(=O)c2ccc(C(F)(F)F)cc21 [Example 288, 1-(4-Fluoro-2-methylphenyl)-3-((2R,3R)-2-methyl-6-oxopiperidin-3-yl)-7-(trifluoromethyl)-2,3-dihydroquinazolin-4(1H)-one] yielded an IC50 of 126 to 631 nM.
Cc1cc(F)ccc1N1CN(c2ccc(=O)[nH]c2C)C(=O)c2cc(C(F)(F)F)ccc21 [Example 297, 1-(4-fluoro-2-methylphenyl)-3-(2-methyl-6-oxo-1,6-dihydropyridin-3-yl)-6-(trifluoromethyl)-2,3-dihydroquinazolin-4(1H)-one] was tested, and the IC50 was no more than 100 nM.
Cc1cc(OC(F)(F)F)ccc1N1CN(c2ccc(=O)[nH]c2C)C(=O)c2cc(C(F)(F)F)cnc21 [Example 298, 1-(2-methyl-4-(trifluoromethoxy)phenyl)-3-(2-methyl-6-oxo-1,6-dihydropyridin-3-yl)-6-(trifluoromethyl)-2,3-dihydropyrido[2,3-d]pyrimidin-4(1H)-one] showed an IC50 of no more than 100 nM.
With Cc1cc(F)ccc1N1CN(c2ccc(=O)[nH]c2C)C(=O)c2cc(C(F)(F)F)cnc21 [Example 299, 1-(4-fluoro-2-methylphenyl)-3-(2-methyl-6-oxo-1,6-dihydropyridin-3-yl)-6-(trifluoromethyl)-2,3-dihydropyrido[2,3-d]pyrimidin-4(1H)-one] the IC50 was 126 to 631 nM.
